Measured values: the supplement of paper PMC9663587

Key:
Neratinib/HKI272 [1] = compound: T1, CCOc1cc2ncc(C#N)c(Nc3ccc(OCc4ccccn4)c(Cl)c3)c2cc1NC(=O)/C=C/CN(C)C [Neratinib/HKI272]; assay: GR value, 72 h; higher = faster growth (1 = untreated, <0 = killing);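 further: breast cancer and non-malignant breast epithelial lines, nine half-log doses, viable cells counted by Hoechst and LIVE/DEAD dye imaging versus time-zero plates and DMSO controls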
Flavopiridol [2] = compound: T2, CN1CC[C@H](c2c(O)cc(O)c3c(=O)cc(-c4ccccc4Cl)oc23)[C@H](O)C1 [Flavopiridol]; assay: as above
[3] = compound: CCc1cnn2c(NCc3ccc[n+]([O-])c3)cc(N3CCCC[C@H]3CCO)nc12; assay: increase in dead-cell fraction, 72 h; higher = more death;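 further: breast cancer cell lines in 384-well plates, stained with Hoechst plus LIVE/DEAD far red dye and imaged, cells above an LDR intensity threshold counted dead, Hoechst-negative corpses included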
THZ1 = compound: CN(C)C/C=C/C(=O)Nc1ccc(C(=O)Nc2cccc(Nc3ncc(Cl)c(-c4c[nH]c5ccccc45)n3)c2)cc1 [THZ1]; assay: as above
Neratinib/HKI272 [4] = compound: T1, Neratinib/HKI272; assay: as above
[5] = compound: CC(=O)c1c(C)c2cnc(Nc3ccc(N4CCNCC4)cn3)nc2n(C2CCCC2)c1=O; assay: as above
YKL-5-124 = compound: C=CC(=O)Nc1ccc(C(=O)Nc2[nH]nc3c2CN(C(=O)N[C@H](CN(C)C)c2ccccc2)C3(C)C)cc1 [YKL-5-124]; assay: as above
BSJ-03-123 = compound: CC(=O)c1c(C)c2cnc(Nc3ccc(N4CCN(CCOCCOCCOCCNC(=O)COc5cccc6c5C(=O)N(C5CCC(=O)NC5=O)C6=O)CC4)cn3)nc2n(C2CCCC2)c1=O [BSJ-03-123]; assay: as above
THZ531 = compound: CN(C)C/C=C/C(=O)Nc1ccc(C(=O)N2CCC[C@@H](Nc3ncc(Cl)c(-c4c[nH]c5ccccc45)n3)C2)cc1 [THZ531]; assay: as above
LEE011/Ribociclib = compound: CN(C)C(=O)c1cc2cnc(Nc3ccc(N4CCNCC4)cn3)nc2n1C1CCCC1 [LEE011/Ribociclib]; assay: as above
Flavopiridol [6] = compound: T2, Flavopiridol; assay: as above
[7] = compound: CCN1CCN(Cc2ccc(Nc3ncc(F)c(-c4cc(F)c5nc(C)n(C(C)C)c5c4)n3)nc2)CC1; assay: as above

PDX1258 showed a GR value (Neratinib/HKI272 [1]; 0.0003162 µM) of 1.07 GR, a GR value (Neratinib/HKI272 [1]; 0.001 µM) of 1.02 GR and a GR value (Neratinib/HKI272 [1]; 0.003162 µM) of 1.1 GR. For the same cell line, the GR value (Neratinib/HKI272 [1]; 0.01 µM) was 1 GR, the GR value (Neratinib/HKI272 [1]; 0.03162 µM) was 0.938 GR and the GR value (Neratinib/HKI272 [1]; 0.1 µM) was 0.772 GR. For the same cell line, the GR value (Neratinib/HKI272 [1]; 0.3162 µM) was 0.749 GR, the GR value (Neratinib/HKI272 [1]; 1 µM) was 0.548 GR and the GR value (Neratinib/HKI272 [1]; 3.162 µM) was 0.195 GR. For the same cell line, the GR value (Flavopiridol [2]; 0.0001 µM) was 1.03 GR, the GR value (Flavopiridol [2]; 0.0003162 µM) was 0.973 GR and the GR value (Flavopiridol [2]; 0.001 µM) was 1.02 GR. For the same cell line, the GR value (Flavopiridol [2]; 0.003162 µM) was 1.07 GR, the GR value (Flavopiridol [2]; 0.01 µM) was 1.18 GR and the GR value (Flavopiridol [2]; 0.03162 µM) was 0.831 GR. It also gave a GR value (Flavopiridol [2]; 0.1 µM) of 0.5 GR, a GR value (Flavopiridol [2]; 0.3162 µM) of -0.24 GR and a GR value (Flavopiridol [2]; 1 µM) of -0.402 GR. For the same cell line, the “increase in dead-cell fraction” value ([3]; 0.0001 µM) was -0.0003, the “increase in dead-cell fraction” value ([3]; 0.0003162 µM) was -0.0056 and the “increase in dead-cell fraction” value ([3]; 0.001 µM) was -0.0037. For the same cell line, the “increase in dead-cell fraction” value ([3]; 0.003162 µM) was 0.0067, the “increase in dead-cell fraction” value ([3]; 0.01 µM) was 0.0568 and the “increase in dead-cell fraction” value ([3]; 0.03162 µM) was 0.537. For the same cell line, the “increase in dead-cell fraction” value ([3]; 0.1 µM) was 0.662, the “increase in dead-cell fraction” value ([3]; 0.3162 µM) was 0.643 and the “increase in dead-cell fraction” value ([3]; 1 µM) was 0.658. The “increase in dead-cell fraction” value (THZ1; 0.0001 µM) was -0.0269, the “increase in dead-cell fraction” value (THZ1; 0.0003162 µM) was 0.0089 and the “increase in dead-cell fraction” value (THZ1; 0.001 µM) was -0.01. For the same cell line, the “increase in dead-cell fraction” value (THZ1; 0.003162 µM) was -0.0015, the “increase in dead-cell fraction” value (THZ1; 0.01 µM) was 0.0153 and the “increase in dead-cell fraction” value (THZ1; 0.03162 µM) was 0.188. For the same cell line, the “increase in dead-cell fraction” value (THZ1; 0.1 µM) was 0.237, the “increase in dead-cell fraction” value (THZ1; 0.3162 µM) was 0.304 and the “increase in dead-cell fraction” value (THZ1; 1 µM) was 0.398. The “increase in dead-cell fraction” value (Neratinib/HKI272 [4]; 0.0003162 µM) was 0.0046, the “increase in dead-cell fraction” value (Neratinib/HKI272 [4]; 0.001 µM) was 0.0126 and the “increase in dead-cell fraction” value (Neratinib/HKI272 [4]; 0.003162 µM) was 0.0014. For the same cell line, the “increase in dead-cell fraction” value (Neratinib/HKI272 [4]; 0.01 µM) was -0.0047, the “increase in dead-cell fraction” value (Neratinib/HKI272 [4]; 0.03162 µM) was 0.0084 and the “increase in dead-cell fraction” value (Neratinib/HKI272 [4]; 0.1 µM) was 0.0159. For the same cell line, the “increase in dead-cell fraction” value (Neratinib/HKI272 [4]; 0.3162 µM) was 0.0244, the “increase in dead-cell fraction” value (Neratinib/HKI272 [4]; 1 µM) was 0.0372 and the “increase in dead-cell fraction” value (Neratinib/HKI272 [4]; 3.162 µM) was 0.118. The “increase in dead-cell fraction” value ([5]; 0.0003162 µM) was 0.0009, the “increase in dead-cell fraction” value ([5]; 0.001 µM) was -0.0052 and the “increase in dead-cell fraction” value ([5]; 0.003162 µM) was -0.0004. The “increase in dead-cell fraction” value ([5]; 0.01 µM) was 0.0095, the “increase in dead-cell fraction” value ([5]; 0.03162 µM) was 0.0043 and the “increase in dead-cell fraction” value ([5]; 0.1 µM) was 0.0062. The “increase in dead-cell fraction” value ([5]; 0.3162 µM) was -0.0028, the “increase in dead-cell fraction” value ([5]; 1 µM) was -0.0014 and the “increase in dead-cell fraction” value ([5]; 3.162 µM) was 0.0061. The “increase in dead-cell fraction” value (YKL-5-124; 0.001 µM) was 0.019, the “increase in dead-cell fraction” value (YKL-5-124; 0.003162 µM) was 0.0602 and the “increase in dead-cell fraction” value (YKL-5-124; 0.01 µM) was 0.0734. For the same cell line, the “increase in dead-cell fraction” value (YKL-5-124; 0.03162 µM) was 0.107, the “increase in dead-cell fraction” value (YKL-5-124; 0.1 µM) was 0.033 and the “increase in dead-cell fraction” value (YKL-5-124; 0.3162 µM) was 0.165. For the same cell line, the “increase in dead-cell fraction” value (YKL-5-124; 1 µM) was 0.153, the “increase in dead-cell fraction” value (YKL-5-124; 3.162 µM) was 0.153 and the “increase in dead-cell fraction” value (YKL-5-124; 10 µM) was 0.298. For the same cell line, the “increase in dead-cell fraction” value (BSJ-03-123; 0.001 µM) was -0.0086, the “increase in dead-cell fraction” value (BSJ-03-123; 0.003162 µM) was 0.027 and the “increase in dead-cell fraction” value (BSJ-03-123; 0.01 µM) was -0.004. The “increase in dead-cell fraction” value (BSJ-03-123; 0.03162 µM) was -0.0154, the “increase in dead-cell fraction” value (BSJ-03-123; 0.1 µM) was 0.0044 and the “increase in dead-cell fraction” value (BSJ-03-123; 0.3162 µM) was -0.0026. The “increase in dead-cell fraction” value (BSJ-03-123; 1 µM) was -0.001, the “increase in dead-cell fraction” value (BSJ-03-123; 3.162 µM) was -0.0102 and the “increase in dead-cell fraction” value (BSJ-03-123; 10 µM) was 0.284. For the same cell line, the “increase in dead-cell fraction” value (THZ531; 0.0001 µM) was 0.0134, the “increase in dead-cell fraction” value (THZ531; 0.0003162 µM) was -0.0091 and the “increase in dead-cell fraction” value (THZ531; 0.001 µM) was -0.0052. The “increase in dead-cell fraction” value (THZ531; 0.003162 µM) was -0.0071, the “increase in dead-cell fraction” value (THZ531; 0.01 µM) was -0.0127 and the “increase in dead-cell fraction” value (THZ531; 0.03162 µM) was 0.0327. For the same cell line, the “increase in dead-cell fraction” value (THZ531; 0.1 µM) was 0.239, the “increase in dead-cell fraction” value (THZ531; 0.3162 µM) was 0.246 and the “increase in dead-cell fraction” value (THZ531; 1 µM) was 0.27. The “increase in dead-cell fraction” value (LEE011/Ribociclib; 0.001 µM) was -0.0077, the “increase in dead-cell fraction” value (LEE011/Ribociclib; 0.003162 µM) was 0.003 and the “increase in dead-cell fraction” value (LEE011/Ribociclib; 0.01 µM) was -0.0078. The “increase in dead-cell fraction” value (LEE011/Ribociclib; 0.03162 µM) was -0.0297, the “increase in dead-cell fraction” value (LEE011/Ribociclib; 0.1 µM) was -0.0249 and the “increase in dead-cell fraction” value (LEE011/Ribociclib; 0.3162 µM) was 0.0184. The “increase in dead-cell fraction” value (LEE011/Ribociclib; 1 µM) was -0.0032, the “increase in dead-cell fraction” value (LEE011/Ribociclib; 3.162 µM) was 0.0025 and the “increase in dead-cell fraction” value (LEE011/Ribociclib; 10 µM) was 0.0066. For the same cell line, the “increase in dead-cell fraction” value (Flavopiridol [6]; 0.0001 µM) was 0.0131, the “increase in dead-cell fraction” value (Flavopiridol [6]; 0.0003162 µM) was -0.0092 and the “increase in dead-cell fraction” value (Flavopiridol [6]; 0.001 µM) was -0.0132. For the same cell line, the “increase in dead-cell fraction” value (Flavopiridol [6]; 0.003162 µM) was -0.0012, the “increase in dead-cell fraction” value (Flavopiridol [6]; 0.01 µM) was 0.0042 and the “increase in dead-cell fraction” value (Flavopiridol [6]; 0.03162 µM) was -0.0156. For the same cell line, the “increase in dead-cell fraction” value (Flavopiridol [6]; 0.1 µM) was 0.0246, the “increase in dead-cell fraction” value (Flavopiridol [6]; 0.3162 µM) was 0.0926 and the “increase in dead-cell fraction” value (Flavopiridol [6]; 1 µM) was 0.288. For the same cell line, the “increase in dead-cell fraction” value ([7]; 0.001 µM) was 0.0001, the “increase in dead-cell fraction” value ([7]; 0.003162 µM) was -0.0098 and the “increase in dead-cell fraction” value ([7]; 0.01 µM) was -0.0015. For the same cell line, the “increase in dead-cell fraction” value ([7]; 0.03162 µM) was -0.003, the “increase in dead-cell fraction” value ([7]; 0.1 µM) was -0.0037 and the “increase in dead-cell fraction” value ([7]; 0.3162 µM) was 0.0003. For the same cell line, the “increase in dead-cell fraction” value ([7]; 1 µM) was 0.0382, the “increase in dead-cell fraction” value ([7]; 3.162 µM) was 0.142 and the “increase in dead-cell fraction” value ([7]; 10 µM) was 0.354.
